# Measured values from ChEMBL document CHEMBL4325871 (Eur J Med Chem, 2019).
# Activity calls are given as the source filed them. The rule behind the calls is not given here.
# Legend:
# [1] = molecular target: Serine/threonine-protein kinase N2 (Homo sapiens) (UniProt Q16513); assay: Inhibition of human PKN2 assessed as residual activity at 1 uM using KKLNRTLSVA as substrate by [gamma-33P]-ATP assay relative to control
# [2] = molecular target: Tyrosine-protein kinase Lck (Homo sapiens) (UniProt P06239); assay: Inhibition of human LCK assessed as residual activity at 1 uM using poly[Glu:Tyr] (4:1) as substrate by [gamma-33P]-ATP assay relative to control
# [3] = molecular target: Bone morphogenetic protein receptor type-2 (Homo sapiens) (UniProt Q13873); assay: Inhibition of human BMPR2 assessed as residual activity at 1 uM using MBP as substrate by [gamma-33P]-ATP assay relative to control
# [4] = molecular target: Myosin light chain kinase (Homo sapiens) (UniProt Q32MK0); assay: Inhibition of human MYLK3 assessed as residual activity at 1 uM using KKRPQRRYSNVF as substrate by [gamma-33P]-ATP assay relative to control
# [5] = molecular target: Aurora kinase B (Homo sapiens) (UniProt Q96GD4); assay: Inhibition of human Aurora B assessed as residual activity at 1 uM using [H-LRRASLG] as substrate by [gamma-33P]-ATP assay relative to control
# [6] = molecular target: Mitogen-activated protein kinase kinase kinase 9 (Homo sapiens) (UniProt P80192); assay: Inhibition of human MLK1 assessed as residual activity at 1 uM using casein as substrate by [gamma-33P]-ATP assay relative to control
# [7] = molecular target: T1, Serine/threonine-protein kinase Chk1 (Homo sapiens) (UniProt O14757); assay: Inhibition of CHK1 phosphorylation at S317 residue in human HCT116 cells at 20 uM after 8 hrs by Western blot analysis; format: cell-based
# T1 sequence (whole entry): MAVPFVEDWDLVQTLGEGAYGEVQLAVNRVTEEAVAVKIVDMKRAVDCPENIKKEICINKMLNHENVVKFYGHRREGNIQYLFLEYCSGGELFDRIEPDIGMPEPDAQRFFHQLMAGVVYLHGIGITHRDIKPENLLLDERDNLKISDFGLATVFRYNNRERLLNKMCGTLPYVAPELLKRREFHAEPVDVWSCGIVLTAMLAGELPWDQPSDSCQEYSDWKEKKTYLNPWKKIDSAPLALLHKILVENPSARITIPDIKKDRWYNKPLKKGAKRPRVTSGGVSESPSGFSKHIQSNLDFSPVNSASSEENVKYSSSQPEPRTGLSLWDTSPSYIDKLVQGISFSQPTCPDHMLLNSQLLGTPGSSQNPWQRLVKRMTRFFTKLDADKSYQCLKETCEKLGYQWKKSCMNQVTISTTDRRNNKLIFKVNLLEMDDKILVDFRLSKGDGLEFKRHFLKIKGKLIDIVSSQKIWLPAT
# [8] = molecular target: Dual serine/threonine and tyrosine protein kinase (Homo sapiens) (UniProt Q6XUX3); assay: Inhibition of human RIPK5 assessed as residual activity at 1 uM using MBP as substrate by [gamma-33P]-ATP assay relative to control
# TGF-beta receptor type-2 = TGF-beta receptor type-2 (Homo sapiens, UniProt P37173); assay: Inhibition of human TGFBR2 assessed as residual activity at 1 uM using MBP as substrate by [gamma-33P]-ATP assay relative to control
# [9] = molecular target: RAC-gamma serine/threonine-protein kinase (Homo sapiens) (UniProt Q9Y243); assay: Inhibition of human AKT3 assessed as residual activity at 1 uM using KGSGSGRPRTSSFAEG as substrate by [gamma-33P]-ATP assay relative to control
# [10] = molecular target: Mitogen-activated protein kinase 15 (Homo sapiens) (UniProt Q8TD08); assay: Inhibition of human ERK7 assessed as residual activity at 1 uM using MBP as substrate by [gamma-33P]-ATP assay relative to control
# [11] = molecular target: MAP kinase-interacting serine/threonine-protein kinase 1 (Homo sapiens) (UniProt Q9BUB5); assay: Inhibition of human MNK1 assessed as residual activity at 1 uM using MBP as substrate by [gamma-33P]-ATP assay relative to control
# [12] = molecular target: Wee1-like protein kinase (Homo sapiens) (UniProt P30291); assay: Inhibition of human WEE1 assessed as residual activity at 1 uM using MBP as substrate by [gamma-33P]-ATP assay relative to control
# [13] = molecular target: Myosin-IIIa (Homo sapiens) (UniProt Q8NEV4); assay: Inhibition of human MYO3A assessed as residual activity at 1 uM using MBP as substrate by [gamma-33P]-ATP assay relative to control
# [14] = molecular target: Tyrosine-protein kinase ITK/TSK (Homo sapiens) (UniProt Q08881); assay: Inhibition of human ITK assessed as residual activity at 1 uM using MBP as substrate by [gamma-33P]-ATP assay relative to control
# [15] = molecular target: Fibroblast growth factor receptor 3 (Homo sapiens) (UniProt P22607); assay: Inhibition of human FGFR3 assessed as residual activity at 1 uM using poly[Glu:Tyr] (4:1) as substrate by [gamma-33P]-ATP assay relative to control
# [16] = molecular target: Misshapen-like kinase 1 (Homo sapiens) (UniProt Q8N4C8); assay: Inhibition of human MINK1 assessed as residual activity at 1 uM using MBP as substrate by [gamma-33P]-ATP assay relative to control
# [17] = molecular target: Tyrosine-protein kinase Blk (Homo sapiens) (UniProt P51451); assay: Inhibition of human BLK assessed as residual activity at 1 uM using poly[Glu:Tyr](4:1) as substrate by [gamma-33P]-ATP assay relative to control
# [18] = molecular target: Activated CDC42 kinase 1 (Homo sapiens) (UniProt Q07912); assay: Inhibition of human ACK1 assessed as residual activity at 1 uM using EAIYAAPFAKKK as substrate by [gamma-33P]-ATP assay relative to control
# [19] = molecular target: NUAK family SNF1-like kinase 1 (Homo sapiens) (UniProt O60285); assay: Inhibition of human ARK5 assessed as residual activity at 1 uM using KKKVSRSGLYRSPSMPENLNRPR as substrate by [gamma-33P]-ATP assay relative to control
# [20] = molecular target: Inactive tyrosine-protein kinase PEAK1 (Homo sapiens) (UniProt Q9H792); assay: Inhibition of human PEAK1 assessed as residual activity at 1 uM using MBP as substrate by [gamma-33P]-ATP assay relative to control
# [21] = molecular target: CDK7/Cyclin H/MNAT1 (Homo sapiens) (UniProt P51946+P50613+P51948); assay: Inhibition of human CDK7/cyclin-H/MNAT1 assessed as residual activity at 1 uM using MBP as substrate by [gamma-33P]-ATP assay relative to control; format: protein-complex assay
# [22] = molecular target: CDK6/cyclin D1 (Homo sapiens) (UniProt P24385+Q00534); assay: Inhibition of human CDK6/cyclin-D1 assessed as residual activity at 1 uM using RB protein as substrate by [gamma-33P]-ATP assay relative to control; format: protein-complex assay
# [23] = molecular target: Death-associated protein kinase 1 (Homo sapiens) (UniProt P53355); assay: Inhibition of human DAPK1 assessed as residual activity at 1 uM using KKLNRTLSFAEPG as substrate by [gamma-33P]-ATP assay relative to control
# Bone morphogenetic protein receptor type-2 (Homo sapiens), sequence (Q13873 whole entry): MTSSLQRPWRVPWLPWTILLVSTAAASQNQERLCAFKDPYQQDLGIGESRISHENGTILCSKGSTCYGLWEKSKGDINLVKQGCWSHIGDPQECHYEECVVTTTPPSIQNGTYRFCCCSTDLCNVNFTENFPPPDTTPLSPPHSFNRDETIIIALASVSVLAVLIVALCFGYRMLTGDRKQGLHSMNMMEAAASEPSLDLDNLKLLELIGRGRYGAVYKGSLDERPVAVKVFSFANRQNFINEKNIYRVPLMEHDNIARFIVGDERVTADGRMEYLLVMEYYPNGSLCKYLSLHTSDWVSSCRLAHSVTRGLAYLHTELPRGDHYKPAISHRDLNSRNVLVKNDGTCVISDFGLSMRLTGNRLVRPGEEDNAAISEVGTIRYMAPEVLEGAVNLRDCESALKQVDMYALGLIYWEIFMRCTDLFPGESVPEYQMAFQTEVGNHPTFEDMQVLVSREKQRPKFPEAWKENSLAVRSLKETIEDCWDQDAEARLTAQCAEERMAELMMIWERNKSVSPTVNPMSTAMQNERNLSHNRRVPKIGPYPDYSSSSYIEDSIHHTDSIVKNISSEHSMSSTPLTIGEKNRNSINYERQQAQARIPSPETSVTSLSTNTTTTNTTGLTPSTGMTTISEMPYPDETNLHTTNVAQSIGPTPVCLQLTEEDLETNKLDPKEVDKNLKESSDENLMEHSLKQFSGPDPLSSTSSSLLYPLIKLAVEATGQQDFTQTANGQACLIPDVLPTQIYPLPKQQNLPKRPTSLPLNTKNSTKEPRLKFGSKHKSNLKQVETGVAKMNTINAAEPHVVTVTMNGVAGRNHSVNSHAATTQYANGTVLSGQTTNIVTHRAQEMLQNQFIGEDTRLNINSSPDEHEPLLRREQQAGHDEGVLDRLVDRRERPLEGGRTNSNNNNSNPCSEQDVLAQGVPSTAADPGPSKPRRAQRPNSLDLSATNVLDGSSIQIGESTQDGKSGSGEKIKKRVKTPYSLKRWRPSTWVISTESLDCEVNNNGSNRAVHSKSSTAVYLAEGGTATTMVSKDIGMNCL
# Tyrosine-protein kinase Blk (Homo sapiens), sequence (P51451 2-505 limits assumed): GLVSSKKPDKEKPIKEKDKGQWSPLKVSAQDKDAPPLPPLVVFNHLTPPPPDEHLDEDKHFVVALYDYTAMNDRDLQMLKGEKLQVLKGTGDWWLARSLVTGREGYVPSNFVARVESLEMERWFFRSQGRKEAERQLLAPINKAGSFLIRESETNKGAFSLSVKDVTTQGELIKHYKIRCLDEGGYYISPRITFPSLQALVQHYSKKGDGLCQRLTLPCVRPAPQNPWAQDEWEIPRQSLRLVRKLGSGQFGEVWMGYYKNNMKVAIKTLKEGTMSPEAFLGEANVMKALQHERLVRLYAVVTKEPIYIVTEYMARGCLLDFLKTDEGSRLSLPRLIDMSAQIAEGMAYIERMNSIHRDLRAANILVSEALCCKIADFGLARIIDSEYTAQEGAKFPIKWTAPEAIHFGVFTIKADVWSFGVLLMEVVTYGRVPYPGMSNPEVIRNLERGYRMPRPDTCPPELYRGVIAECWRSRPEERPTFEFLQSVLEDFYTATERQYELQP
# Wee1-like protein kinase (Homo sapiens), sequence (P30291 whole entry, looked up): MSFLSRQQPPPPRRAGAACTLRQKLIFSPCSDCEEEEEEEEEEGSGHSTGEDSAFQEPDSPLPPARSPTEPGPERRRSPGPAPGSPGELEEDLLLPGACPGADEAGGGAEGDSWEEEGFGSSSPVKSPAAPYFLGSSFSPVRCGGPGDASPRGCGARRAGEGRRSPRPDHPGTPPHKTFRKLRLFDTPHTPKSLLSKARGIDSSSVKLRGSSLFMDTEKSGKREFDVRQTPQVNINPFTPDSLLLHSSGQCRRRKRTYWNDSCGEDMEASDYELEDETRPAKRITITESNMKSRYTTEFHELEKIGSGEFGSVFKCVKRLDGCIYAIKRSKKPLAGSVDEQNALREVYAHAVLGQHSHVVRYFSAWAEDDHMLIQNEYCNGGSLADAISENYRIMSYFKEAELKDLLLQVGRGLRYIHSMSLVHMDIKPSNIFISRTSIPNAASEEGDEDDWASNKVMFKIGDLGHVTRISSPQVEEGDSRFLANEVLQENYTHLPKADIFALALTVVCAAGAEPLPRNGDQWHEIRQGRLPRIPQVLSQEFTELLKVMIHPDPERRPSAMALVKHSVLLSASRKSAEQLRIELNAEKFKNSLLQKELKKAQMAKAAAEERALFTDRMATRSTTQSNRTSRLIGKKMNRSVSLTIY
# NUAK family SNF1-like kinase 1 (Homo sapiens), sequence (O60285 whole entry): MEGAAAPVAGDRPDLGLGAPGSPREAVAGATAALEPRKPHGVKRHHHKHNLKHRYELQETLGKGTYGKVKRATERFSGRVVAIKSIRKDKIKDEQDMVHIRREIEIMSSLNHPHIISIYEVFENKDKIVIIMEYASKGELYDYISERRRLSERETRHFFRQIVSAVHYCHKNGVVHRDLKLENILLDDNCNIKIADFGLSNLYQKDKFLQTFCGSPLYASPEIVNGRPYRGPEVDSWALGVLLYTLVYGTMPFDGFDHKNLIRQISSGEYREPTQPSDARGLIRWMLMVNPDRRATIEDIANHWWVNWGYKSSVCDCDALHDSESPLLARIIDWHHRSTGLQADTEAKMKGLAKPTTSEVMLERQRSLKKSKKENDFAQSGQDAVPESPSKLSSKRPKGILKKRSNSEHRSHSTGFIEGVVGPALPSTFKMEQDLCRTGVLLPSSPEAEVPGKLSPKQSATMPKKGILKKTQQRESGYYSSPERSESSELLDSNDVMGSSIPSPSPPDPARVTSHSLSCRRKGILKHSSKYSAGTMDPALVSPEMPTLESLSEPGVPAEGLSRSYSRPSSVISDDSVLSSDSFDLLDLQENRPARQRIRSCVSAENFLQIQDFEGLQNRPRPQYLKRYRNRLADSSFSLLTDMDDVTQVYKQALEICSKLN
# Aurora kinase B (Homo sapiens), sequence (Q96GD4 whole entry): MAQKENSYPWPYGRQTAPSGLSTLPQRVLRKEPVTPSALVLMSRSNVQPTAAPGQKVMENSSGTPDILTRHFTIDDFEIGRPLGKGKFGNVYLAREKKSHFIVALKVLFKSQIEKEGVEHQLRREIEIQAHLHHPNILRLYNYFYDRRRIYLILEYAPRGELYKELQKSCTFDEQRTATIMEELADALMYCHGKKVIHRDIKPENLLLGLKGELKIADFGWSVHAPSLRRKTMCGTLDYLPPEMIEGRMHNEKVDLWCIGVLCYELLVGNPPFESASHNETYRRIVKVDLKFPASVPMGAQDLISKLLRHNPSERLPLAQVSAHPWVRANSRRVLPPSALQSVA
# TGF-beta receptor type-2, sequence (P37173 whole entry): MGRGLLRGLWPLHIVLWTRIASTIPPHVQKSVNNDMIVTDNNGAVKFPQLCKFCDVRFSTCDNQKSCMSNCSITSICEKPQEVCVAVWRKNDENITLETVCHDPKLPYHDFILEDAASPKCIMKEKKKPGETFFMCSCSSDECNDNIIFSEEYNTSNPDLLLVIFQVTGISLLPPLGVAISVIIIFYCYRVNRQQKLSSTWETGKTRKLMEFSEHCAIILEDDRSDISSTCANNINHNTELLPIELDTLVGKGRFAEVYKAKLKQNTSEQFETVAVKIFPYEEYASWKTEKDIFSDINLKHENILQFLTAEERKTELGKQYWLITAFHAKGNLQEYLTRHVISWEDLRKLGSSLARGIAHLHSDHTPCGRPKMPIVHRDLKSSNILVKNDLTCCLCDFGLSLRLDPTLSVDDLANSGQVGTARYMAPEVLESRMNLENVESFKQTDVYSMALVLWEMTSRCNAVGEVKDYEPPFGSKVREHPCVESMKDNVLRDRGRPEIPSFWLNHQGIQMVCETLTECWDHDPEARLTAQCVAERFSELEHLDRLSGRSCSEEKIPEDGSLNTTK
# Tyrosine-protein kinase Lck (Homo sapiens), sequence (P06239 2-509 limits assumed): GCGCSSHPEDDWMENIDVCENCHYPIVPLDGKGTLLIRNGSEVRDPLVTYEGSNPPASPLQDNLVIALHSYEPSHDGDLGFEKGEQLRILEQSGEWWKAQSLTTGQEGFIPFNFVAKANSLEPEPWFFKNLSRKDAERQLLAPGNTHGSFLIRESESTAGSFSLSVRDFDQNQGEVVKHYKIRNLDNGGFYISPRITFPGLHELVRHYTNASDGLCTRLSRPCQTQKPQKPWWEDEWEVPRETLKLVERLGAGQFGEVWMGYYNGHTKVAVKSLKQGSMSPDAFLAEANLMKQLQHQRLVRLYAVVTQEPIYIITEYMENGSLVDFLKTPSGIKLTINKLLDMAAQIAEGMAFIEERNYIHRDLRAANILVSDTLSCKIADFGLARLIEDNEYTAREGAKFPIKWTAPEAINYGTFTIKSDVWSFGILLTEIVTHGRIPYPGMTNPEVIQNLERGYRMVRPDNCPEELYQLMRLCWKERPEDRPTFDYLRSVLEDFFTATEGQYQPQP
# Fibroblast growth factor receptor 3 (Homo sapiens), sequence (P22607 23-806 limits assumed): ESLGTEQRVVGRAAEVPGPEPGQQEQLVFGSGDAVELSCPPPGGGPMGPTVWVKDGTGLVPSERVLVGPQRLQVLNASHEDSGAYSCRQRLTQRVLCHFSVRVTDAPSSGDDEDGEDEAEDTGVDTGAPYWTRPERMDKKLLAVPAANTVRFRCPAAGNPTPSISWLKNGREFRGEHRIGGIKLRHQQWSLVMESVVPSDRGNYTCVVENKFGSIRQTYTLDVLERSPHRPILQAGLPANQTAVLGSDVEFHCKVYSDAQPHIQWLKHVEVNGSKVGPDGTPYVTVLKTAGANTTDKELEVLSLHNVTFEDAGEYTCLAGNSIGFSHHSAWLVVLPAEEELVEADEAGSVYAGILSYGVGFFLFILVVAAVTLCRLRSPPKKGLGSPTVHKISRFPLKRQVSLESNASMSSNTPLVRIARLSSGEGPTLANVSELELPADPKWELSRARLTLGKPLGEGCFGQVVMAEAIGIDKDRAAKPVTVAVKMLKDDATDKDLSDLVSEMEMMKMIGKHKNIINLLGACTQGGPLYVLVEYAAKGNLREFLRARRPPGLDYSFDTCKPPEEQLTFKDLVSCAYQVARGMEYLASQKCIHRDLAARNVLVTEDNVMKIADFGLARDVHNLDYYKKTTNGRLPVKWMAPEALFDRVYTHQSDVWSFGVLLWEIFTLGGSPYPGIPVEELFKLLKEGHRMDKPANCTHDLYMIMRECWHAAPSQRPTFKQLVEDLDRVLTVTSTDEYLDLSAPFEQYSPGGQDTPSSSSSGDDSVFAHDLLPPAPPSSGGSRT
compound,measurement,setting,value
C(=C\c1ccccc1)/C[N+]12CN3CN(CN(C3)C1)C2,Activity,[1],95.9 to 108%
same,Activity,[2],94.2 to 95.5%
same,Activity,[3],96.8 to 98.9%
same,Activity,[4],92 to 96.4%
same,Activity,[5],95.1 to 95.4%
same,Activity,[6],96.8%
same,inhibition,[7],inactive
same,Activity,[8],91 to 92.4%
same,Activity,TGF-beta receptor type-2,111 to 119%
same,Activity,[9],95.9 to 96%
same,Activity,[10],95 to 96.7%
same,Activity,[11],96.3 to 99.7%
same,Activity,[12],112 to 120%
same,Activity,[13],113 to 122%
same,Activity,[14],91.3 to 92.2%
same,Activity,[15],93.8 to 94.8%
ClC/C=C/C[N+]12CN3CN(CN(C3)C1)C2,Activity,[16],91.9 to 94.8%
same,Activity,[17],93.1 to 94.8%
same,Activity,[18],90.6 to 94.8%
same,Activity,[19],87.9 to 94.8%
same,Activity,[20],94.2 to 94.3%
same,Activity,[21],97.4 to 97.9%
same,Activity,[22],97.5 to 97.7%
same,Activity,[23],119 to 135%
